In patent US20170298051A1, “ACTIVATOR OF ADIPONECTIN RECEPTOR” (THE UNIVERSITY OF TOKYO, priority 2013, published 2017):

Key:
[1] = target: T1, AdipoR1 (Mus musculus, UniProt Q91VH1); experiment: Measurement of AMPK phosphorylation ability (Assay 1), differentiated C2C12 cells, Western blotting; type: cell-based; settings: 10 μM, 10 minutes
T1 construct: C2C12 cells (ATCC; CRL-1772, medium; host or cells: differentiated C2C12
T1 sequence (Q91VH1 1-375): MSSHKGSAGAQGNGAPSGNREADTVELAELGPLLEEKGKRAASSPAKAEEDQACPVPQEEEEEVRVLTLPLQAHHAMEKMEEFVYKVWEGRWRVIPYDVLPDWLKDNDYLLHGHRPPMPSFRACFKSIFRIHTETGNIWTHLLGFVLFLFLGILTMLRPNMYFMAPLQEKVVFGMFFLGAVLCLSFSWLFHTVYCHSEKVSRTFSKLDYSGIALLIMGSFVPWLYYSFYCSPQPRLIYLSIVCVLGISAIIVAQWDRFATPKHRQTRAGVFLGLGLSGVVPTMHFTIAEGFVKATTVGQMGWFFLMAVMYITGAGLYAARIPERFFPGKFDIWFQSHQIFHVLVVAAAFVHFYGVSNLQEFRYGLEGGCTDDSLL
Summary of the method: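 Differentiated mouse C2C12 myotubes (2.5% horse serum) starved and then treated with compound at 10 μM for 10 min. Phospho-AMPKα (Thr172) and total AMPKα measured by Western blot with ECL, band densitometry.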

[2] = system: AdipoR1; experiment: Measurement of AMPK phosphorylation ability (Assay 2), C2C12 cells with unrelated or AdipoR1 siRNA; type: cell-based, Mouse
Summary of the method: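 Differentiated C2C12 myotubes (DMEM, 2.5% horse serum) transfected with 5 μM siRNA stock via Lipofectamine RNAiMAX, serum-starved next day, then exposed to test compound for 10 min. Plates snap-frozen in liquid nitrogen; pAMPK and total AMPK quantified as in Assay 1.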

O=C(COc1ccc(C(=O)c2ccccc2)cc1)NC1CCN(Cc2ccccc2)CC1 [Compound 73, 2-(4-benzoyl-phenoxy)-N-(1-benzylpiperidin-4-yl)acetamide]
pAMPK/AMPK (%) [1]: 84.33%
pAMPK/AMPK (ratio) siRNA, AdipoR1 siRNA ([2]; AdipoR1 siRNA): 2.68 ratio
pAMPK/AMPK (ratio) siRNA, unrelated siRNA ([2]; unrelated siRNA): 4.75 ratio
